# Source: US20090149551A1 (priority 2007, published 2009)
# Like-named read-outs stand apart in the source and are kept apart here.
# Key:
# [1] = system: pooled human liver microsomes
# [2] = Stability in solution by HPLC analysis; type: physicochemical
# Description: 4b,5,6,7,8,8a-cis-Hexahydro-2-hydroxy-4b,8,8a-trimethylphenanthren-9,10-dione (OHCT). Spontaneous oxidation of HCT to OHCT was carried out in 100 mM phosphate buffer (pH 7.4) and 1.0 mM HCT in 10% acetonitrile. […]
# human HepG2 cells [3] = conditions: HepG2, co-treatment with AFB1; Zhou et al. 2006; cited from earlier work
# P450 1A/1B = conditions: HepG2, co-treatment with TCDD; cited from earlier work
# [4] = target: T1, recombinant human P450 3A4 (Homo sapiens, UniProt P08684); assay: Vivid P450 3A4 activity assay with NADPH regenerating system; type: biochemical; conditions: for decrease of P450 3A4 activity: 2 μM DBOMF
# T1 construct: purchased Invitrogen (Carlsbad, Calif.)
# T1 sequence (P08684 whole entry): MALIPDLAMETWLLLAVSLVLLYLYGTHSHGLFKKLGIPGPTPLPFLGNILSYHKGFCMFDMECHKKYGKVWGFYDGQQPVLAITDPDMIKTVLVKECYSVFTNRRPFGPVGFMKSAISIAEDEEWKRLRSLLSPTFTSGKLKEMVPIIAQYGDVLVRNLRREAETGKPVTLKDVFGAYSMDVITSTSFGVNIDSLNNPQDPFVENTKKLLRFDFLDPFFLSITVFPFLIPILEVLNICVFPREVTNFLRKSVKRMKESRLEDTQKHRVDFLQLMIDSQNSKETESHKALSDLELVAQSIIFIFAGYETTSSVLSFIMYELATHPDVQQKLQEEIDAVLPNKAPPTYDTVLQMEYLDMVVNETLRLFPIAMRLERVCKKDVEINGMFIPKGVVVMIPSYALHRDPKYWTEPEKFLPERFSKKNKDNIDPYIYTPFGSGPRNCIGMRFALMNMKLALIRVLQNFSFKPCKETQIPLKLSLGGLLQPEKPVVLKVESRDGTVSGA
# Description: (§1) The Vivid® P450 3A4 activity assay was carried out according to the manufacturer's protocol. Briefly, water (30 μL) and solutions of HCT (10 μL) were added to wells of a 96-well black plate. Master pre-mix solutions (50 μL) containing recombinant human P450 3A4 and rabbit NADPH P450 reductase were then added, and the resulting solutions were equilibrated at room temperature for 20 min. Finally, 10 μL of mixed NADP^+ and DBOMF substrate solutions were added, and the fluorescence intensity over time was recorded with a fluorometer at the excitation and emission wavelengths of 485 and 535 nm, respectively. The final concentrations were 100 mM phosphate buffer (pH 8.0), 3.3 mM glucose-6-phosphate, 0.3 unit/mL glucose-6-phosphate dehydrogenase, 1.0 mM NADP^+, 2 μM DBOMF and 5 nM P450 3A4 with 0.1% DMSO. Control experiments included no DBOMF as the background and 1 μM ketoconazole as the positive control. The rates of the P450 activity were obtained from the slope of the change of the fluorescent intensity over the initial 8 min.
# (§2) Enzyme and Cellular Studies with OHCT. The inhibitory effect of OHCT on P450 3A4 and the metabolic conversion of AFB1 with liver microsomes were studied similarly as described for HCT. […] The P450 activity was carried out similarly as described above with concentrations of DBOMF at 0.50, 0.67, 1.0, and 2.0 μM, respectively. The rates of the P450 activity were obtained as the slope of the change of the fluorescent intensity over the initial 4 min. The inhibitory constants of OHCT were obtained from the global best fit of the mixed inhibition model by GraphPad Prism (version 4.00, GraphPad Software, San Diego, Calif.).
# [5] = system: human liver or lung cells; assay: Toxicity to human liver or lung cells in culture
# P. falciparum clone Dd2 = type: cell-based, Plasmodium falciparum
# Description: Cultures of Plasmodium falciparum.
# In vitro antiplasmodial activity: All solutions of chloroquine diphosphate, artemisinin (Sigma Aldrich), and OHCT were prepared in media RPMI 1640, ethanol and 0.1% DMSO, respectively. […] Parasite growth was estimated by microscopic observation of Giemsa-stained blood smears. All results presented are the means of at least three independent experiments.
# OHCT action on specific parasite life cycle stages: P. falciparum cultures were synchronized with 5% sorbitol and the Percoll-Sorbitol methods. Dilutions of OHCT, chloroquine, and artemisinin were prepared. To determine the in vitro efficacies of the three antimalarial drugs in culture, serial dilutions were prepared: for artemisinin, chloroquine and OHCT at 2, 4, 8, 16, 32 and 40 μM, respectively. After synchronization, the parasites were plated at the ring stage in 96-well plates. Each plate corresponded to one of the successive 6-h periods of the P. falciparum life cycle.
# [6] = Toxicity in mice receiving OHCT; conditions: administration over four days, observed three months after administration
# human HepG2 cells [7] = type: cell-based; conditions: for chemoprotection against AFB1 induced cytotoxicity: 2 μM AFB1, HepG2
# Description: The cell viability MTT assay on human HepG2 cells was carried out as previously reported. Briefly, HepG2 cells were seeded at 30,000 cells/well on a 96 well plate for 4 h before the treatment with AFB1 and OHCT or ketoconazole. After incubation for 72 h, the MTT assay was performed, followed by obtaining the absorbance of each well at 570 nm with a plate reader (μQuant, BioTek Instruments, Vt.). The statistical analyses (one-way ANOVA with Dunnett's test) were performed by GraphPad Prism.
# CYP3A4 (P450 3A4) = target: T2, CYP3A4 (P450 3A4) (Homo sapiens, UniProt P08684); assay: Vivid P450 3A4 activity assay with NADPH regenerating system; type: biochemical; conditions: human, recombinant human P450 3A4 with rabbit NADPH P450 reductase, pH 8, probe DBOMF 2 μM; 1 μM, 2 μM DBOMF; read-out: inhibition of the enzyme activity (P450 3A4)
# T2 construct: purchased Invitrogen (Carlsbad, Calif.)
# T2 sequence (P08684 whole entry): as above
# Description: as §1, §2
# [8] = 40 μM, 50 μM AFB1, NADPH regenerating system, 37° C. 90 min
# [9] = mixed inhibition model, global best fit, substrate DBOMF
compound,measurement,setting,value
2-hydroxy-cis-terpenone [HCT],inhibition of the metabolic conversion of AFB1 in liver microsomes,[1]; [8],effective inhibition
same,inhibition of the α-NF stimulated production of exo-AFB1-epoxide,"[1]; 40 μM, with 50 μM α-NF",consistently inhibited
same,inhibition of the carcinogenic conversion of AFB1 with liver microsomes,"[1]; 10, 20, 40 μM",inhibited by HCT in a concentration dependent manner
same,stability in the phosphate buffer and in the AFB1 metabolic study,"[2]; 100 mM phosphate buffer pH 7.4, 37° C.",slow degradation
same,stability of stock solutions,"[2]; acetonitrile, −15° C., several weeks",no significant degradation
same,effect of co-treatment on AFB1 induced cytotoxicity including DNA damage and cell death,human HepG2 cells [3],reduced AFB1 induced cytotoxicity
same,effect on TCDD induced P450-1 activity,P450 1A/1B,inhibited
same,decrease of P450 3A4 activity,[4]; 10 μM,~30%
same,decrease of P450 3A4 activity,[4]; 20 μM,~50%
same,decrease of P450 3A4 activity,[4]; 40 μM,~70%
same,IC50,"[4]; purified P450 3A4, read-out: IC50, inhibition of purified P450 3A4 enzyme activity",20 µM
"CC1CCCC2(C)c3ccc(O)cc3C(=O)C(=O)C12C (stereo not drawn) [OHCT, 4b,5,6,7,8,8a-cis-Hexahydro-2-hydroxy-4b,8,8a-trimethylphenanthren-9,10-dione]",inhibition of the metabolic conversion of AFB1 in liver microsomes,[1]; [8],inhibition of both GSH-AFB1 adducts and aflatoxin Q1
same,stability under aqueous conditions and in the metabolic study of liver microsomes,"[1]; liver microsomes, HPLC",no degradation
same,toxicity to human liver or lung cells in culture,[5],no toxicity
same,stability under aqueous conditions,"[2]; 72 h at 37° C., HPLC",no degradation
same,activity against the gametocyte forms of the parasite,P. falciparum clone Dd2; 2 μM,active
same,decrease of parasitemia,"P. falciparum clone Dd2; 16 μM, 8 h, clone Dd2",50%
same,killing of chloroquine resistant clone Dd2,"P. falciparum clone Dd2; 24 hr following treatment, concentration dependent",killed
same,"inhibition of early ring, trophozoite and schizont stages","P. falciparum clone Dd2; clone Dd2, 24 hr",equally inhibited
same,signs of toxicity in mice,[6],no signs of toxicity
same,cytotoxicity of the compound alone,"human HepG2 cells [7]; 60 μM alone, HepG2",no cytotoxicity
same,cell viability on co-treatment with AFB1,"human HepG2 cells [7]; 60 μM, 2 μM AFB1, HepG2, 72 h, MTT",more than 90%
same,chemoprotection against AFB1 induced cytotoxicity,human HepG2 cells [7]; 40 and 60 μM,effective chemoprotection
same,decrease of P450 3A4 activity,[4]; 20 μM,50%
same,Ki (disassociation constant of enzyme inhibitor complex),[4]; [9],17.6 ± 5.6 µM
same,Ki′ (disassociation constant of enzyme-substrate inhibitor complex),[4]; [9],7.6 ± 1.5 µM
"CC(C)CCC[C@@H](C)[C@H]1CC[C@H]2[C@@H]3CC=C4C[C@@H](O)CC[C@]4(C)[C@H]3CC[C@]12C [cholesterol, reference compound]",inhibitory effect on the metabolic conversion of AFB1 in liver microsomes,[1]; up to 100 μM,no inhibitory effect
"CC(=O)N1CCN(c2ccc(OCC3COC(Cn4ccnc4)(c4ccc(Cl)cc4Cl)O3)cc2)CC1 (stereo not shown) [ketoconazole, reference compound]",inhibition of the α-NF stimulated production of exo-AFB1-epoxide,[1],consistently inhibited
same,inhibition of the metabolism of AFB1 in liver microsomes,"[1]; 1 μM, 50 μM AFB1, NADPH regenerating system, 37° C. 90 min",same extent as 40 μM HCT
same,"cell mortality, compound alone","human HepG2 cells [7]; 20 μM alone, HepG2",20%
same,chemoprotection against AFB1 induced cytotoxicity,human HepG2 cells [7]; 10 and 20 μM,observed
same,"inhibition at 8 min, 1 μM",CYP3A4 (P450 3A4),> 90%
"O=c1cc(-c2ccccc2)oc2c1ccc1ccccc12 [α-NF, α-naphthoflavone, reference compound]",decrease of aflatoxin Q1 versus no α-NF,[1]; 50 μM,6 fold
same,increase of the amount of GSH-AFB1 adducts versus no α-NF,[1]; 50 μM,2.3 folds
